The nature of series [1]: Solubility test in phosphate buffer. The format is physicochemical. The note with it: aqueous buffer, thermodynamic from solid; phosphate buffer pH 7.4, room temperature. The protocol:
Aliquot of 1.035 mL phosphate buffer (PB) (pH 7.4) was added into 2.07 mg of the test compound (for a 2 mg·mL^−1 upper limiting solubility determination) in a 1.5 mL tubes. The mixture was ultrasonicly treated for 10 min and rotated on rotator at room temperature for more than 8 hr. After rotation, the tube was ultrasonicly treated for 10 min and centrifuged at 13000 rpm for 15 min. 0.3 mL of the supernatant was transferred into a 0.6 mL tube and discarded after rotated for 5 min for rinsing, then about 0.6 mL of the residual supernatant was transferred into the rinsed tube and centrifuged again at 13000 rpm for 15 min. The supernatant after every centrifugation was appropriately diluted and transferred for LC-MS/MS analysis where a standard curve was constructed with 7 concentration levels (2, 4, 10, 20, 40, 100 and 200 μg mL^−1) and used for the quantitation of the analyte in PB.

Series [2] is described as follows: Mouse pharmacokinetic study. The class given is in vivo. The note with it: single oral dose (dose level not given), plasma. On the procedure: To prepare 1 L of the vehicle solution (0.5% CMC and 1.0% Tween 80), 10 g of Tween 80 was mixed with 985 mL of water into a 1 L bottle. The mixture was stirred until Tween 80 was completely dissolved. With continued stirring, 5 g of CMC was very slowly sprinkled into the solution. Stirring was continued until all CMC was dissolved, which might take several hr. The resulting vehicle solution was stored at 4° C.
The compound was suspended in the vehicle solution and the mice were orally administrated with a single dose of the compound at the selected dose level. The blood samples were collected according to the defined time table into tubes containing K2-EDTA, followed by gentle mixing to assure distribution of the anti-coagulant. Immediately after the blood sample was collected and mixed, it was placed on ice. The samples were then centrifuged at 4° C. for 10 minutes at 5,000 RPM. The plasma was harvested into pre-labeled tubes and stored at −80° C. until analyzed by LC-MS/MS.

Series [3] has as its target KG-1 cell (OP2-FGFR1) (Homo sapiens, UniProt P11362). In words: Cell proliferation assay (CellTiter-Glo). (Cellular ATP, detected with luciferase, serves as a proxy for viable cell number.)
The target in series [4] is T1, Ba/F3 cell-derived tumors with the EML4-ALK G1202R fusion (Homo sapiens, UniProt Q9UM73, G1202R).
T1 sequence (Q9UM73 with tags, fused parts or gaps G1202R): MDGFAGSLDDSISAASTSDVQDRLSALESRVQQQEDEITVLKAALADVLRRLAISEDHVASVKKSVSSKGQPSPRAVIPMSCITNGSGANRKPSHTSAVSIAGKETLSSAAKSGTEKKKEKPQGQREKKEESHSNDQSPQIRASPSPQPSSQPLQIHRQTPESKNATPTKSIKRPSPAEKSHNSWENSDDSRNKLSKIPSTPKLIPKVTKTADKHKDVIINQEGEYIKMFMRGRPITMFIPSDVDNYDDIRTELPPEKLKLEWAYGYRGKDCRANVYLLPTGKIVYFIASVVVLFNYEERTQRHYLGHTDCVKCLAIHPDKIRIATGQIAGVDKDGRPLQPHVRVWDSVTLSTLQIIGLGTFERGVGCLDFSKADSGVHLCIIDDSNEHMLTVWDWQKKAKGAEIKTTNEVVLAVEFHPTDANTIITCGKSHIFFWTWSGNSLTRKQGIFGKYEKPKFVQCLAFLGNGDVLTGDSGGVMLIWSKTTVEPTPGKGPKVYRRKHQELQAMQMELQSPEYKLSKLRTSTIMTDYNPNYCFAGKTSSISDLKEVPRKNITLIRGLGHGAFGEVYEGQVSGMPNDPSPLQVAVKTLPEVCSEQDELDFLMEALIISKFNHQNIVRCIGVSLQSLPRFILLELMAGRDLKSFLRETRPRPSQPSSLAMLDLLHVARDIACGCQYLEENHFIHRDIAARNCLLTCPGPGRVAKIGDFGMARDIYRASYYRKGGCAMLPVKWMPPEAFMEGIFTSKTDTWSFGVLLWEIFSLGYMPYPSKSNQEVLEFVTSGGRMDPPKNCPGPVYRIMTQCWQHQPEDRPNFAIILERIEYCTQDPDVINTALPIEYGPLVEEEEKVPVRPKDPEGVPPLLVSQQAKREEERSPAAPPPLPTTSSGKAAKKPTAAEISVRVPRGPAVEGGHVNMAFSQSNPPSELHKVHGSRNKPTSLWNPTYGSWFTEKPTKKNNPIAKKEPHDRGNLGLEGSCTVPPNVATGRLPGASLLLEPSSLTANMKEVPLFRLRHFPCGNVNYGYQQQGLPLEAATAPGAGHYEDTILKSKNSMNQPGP
The settings on record: after 7 days of treatment.

Series [5] can be described thus: Liver microsomal stability. The format is in vitro ADME. The settings on record: pH 7.4, 1 μM compound, 0.5 mg/mL liver microsome protein. The protocol:
The test compound stock solution was prepared by weighing 1.07 mg and dissolving in 0.261 mL of DMSO to achieve the concentration of 10 mM. Working solution of the test compound was prepared by diluting stock solution using DMSO to yield the concentration of 300 μM.
The assay was carried out in 96-well microtiter plates. In each well, the reaction mixture (25 μL) contained the test compound at the final concentration of 1 μM, 0.5 mg/mL liver microsome protein, and 1 mM NADPH in 100 mM potassium phosphate, pH 7.4 buffer with 3.3 mM MgCl2. The mixtures were incubated in duplicate at 37° C. for 0, 15, 30 or 60 minutes, and 150 μL of quench solution (acetonitrile with 0.1% formic acid) with internal standard (bucetin for positive ESI mode) was added into each well of reaction to terminate the reaction. The plates were then sealed and centrifuged at 4° C. for 15 minutes at 4000 rpm. The resulting supernatant was transferred to fresh plates for LC-MS/MS analysis of the test compounds. Verapamil was used as the positive control to validate the assay system.
All samples were analyzed with LC-MS/MS using an AB Sciex API 4000 instrument, coupled to a Shimadzu LC-20AD LC Pump system. Analytical samples were separated using a Waters Atlantis T3 dC18 reverse phase HPLC column (20 mm×2.1 mm) at a flow rate of 0.5 mL/min. The mobile phase consisted of 0.1% formic acid in water (solvent A) and 0.1% formic acid in acetonitrile (solvent B).
The extent of metabolism was calculated based on the disappearance of the test compound, compared to its initial concentration. The initial rates of clearance of test compounds were calculated using linear regression plot of semi-log % remaining of compounds versus time. The elimination rate constant (equals to negative slope) of the linear regression plot was then used to determine t112 and the intrinsic clearance (CLInt) using the following formula: k=−slope t1/2=0.693/k CLint=k/Cprotein
Where Cprotein (mg/mL) is the microsomal protein concentration in the incubation system.

[6] abbreviates: female, mouse, liver microsomes.

Values after ≈ are worked out from the molar mass of the structure shown. Where two headings read alike, the source gives them in different places.

Sequence of KG-1 cell (OP2-FGFR1) (P11362 456-822 limits assumed): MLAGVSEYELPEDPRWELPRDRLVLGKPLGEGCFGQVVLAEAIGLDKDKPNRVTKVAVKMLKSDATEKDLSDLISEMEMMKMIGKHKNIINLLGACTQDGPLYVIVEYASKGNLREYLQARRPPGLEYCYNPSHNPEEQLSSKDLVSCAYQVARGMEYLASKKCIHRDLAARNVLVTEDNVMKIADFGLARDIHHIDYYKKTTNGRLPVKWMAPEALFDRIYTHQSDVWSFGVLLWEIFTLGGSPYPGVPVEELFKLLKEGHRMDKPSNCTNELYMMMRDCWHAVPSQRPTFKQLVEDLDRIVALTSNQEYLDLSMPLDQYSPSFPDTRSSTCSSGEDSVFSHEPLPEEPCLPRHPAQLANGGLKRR

Take `CC1(C)COc2ccc(F)cc2CN2c3nc4c(cnn4cc3OC[C@H]2C(F)F)C(=O)N1` [Compound 1, (4S)-4-(Difluoromethyl)-8-fluoro-13,13-dimethyl-3,4,13,14-tetrahydro-6H-18,1-(metheno)[1,4]oxazino[3,4-i]pyrazolo[4,3-f][1,4,8,10]benzoxatriazacyclotridecin-15(12H)-one]: in series [1], the solubility (in general, the dissolved amount per volume that the medium holds) turned out to be 3.3 µg/mL (≈ 7.38 µM). In addition, the AUC (as a rule, the area under the concentration-time curve, a measure of exposure) in series [2] came to 11900 ng·h/mL. Also, the Cmax (usually the highest concentration seen after dosing) in series [2] worked out at 1750 ng/mL. Also, the time to peak (Tmax) – broadly, the time from dosing to the highest level – in series [2] stood at 2 h. Also, the IC50 (in general, the concentration that inhibits the measured activity by half) in series [3] worked out at 554 nM. In addition, the “Tumor growth inhibition (TGI)” value in series [4] (2 mg/kg BID oral) is listed as 64%; in series [4] (5 mg/kg BID oral) it was 120%; in series [4] (10 mg/kg BID oral), 200%. For the same compound, the body weight entry in series [4] (2, 5, 10 mg/kg BID) is “no body weight loss”. Besides, the microsomal CLint (commonly the rate of metabolic loss divided by the concentration) at 1 µM in series [5] (setting [6]) was found to be 11 µL/min/mg; in series [5] (female, rat, liver microsomes), 1.5 µL/min/mg; in series [5] (human, pooled liver microsomes) it was 8.3 µL/min/mg.
`O=C1NCC2(CC2)COc2ccc(F)cc2CN2c3nc4c1cnn4cc3OC[C@H]2C(F)F` [Compound 2, (16′S)-16′-(Difluoromethyl)-12′-fluoro-4′H,5′H,6′H,8′H,14′H,16′H,17′H-spiro[cyclopropane-1,7′-[1,19](metheno)[1,4]oxazino[3,4-j]pyrazolo[4,3-g][1,5,9,11]benzoxatriazacyclotetradecin]-4′-one] yielded a solubility in series [1] of 2.6 µg/mL (≈ 5.66 µM). Further, the exposure (AUC) in series [2] was determined as 14600 ng·h/mL. In series [2], this compound yielded a Cmax of 2510 ng/mL. Further, in series [2], the time to peak (Tmax) was 2 h. The compound also gave an IC50 in series [3] of 3.8 nM. The entries for the “Tumor growth inhibition (TGI)” value in series [4] (3 mg/kg BID oral) and in series [4] (10 mg/kg BID oral) were 51% and 77%, respectively. Besides, in series [4] (3 and 10 mg/kg BID), the body weight result is on record as “no body weight loss”. The microsomal CLint at 1 µM in series [5] (setting [6]) was determined as 25 µL/min/mg; in series [5] (female, rat, liver microsomes) it was 3.5 µL/min/mg; in series [5] (human, pooled liver microsomes), 8.8 µL/min/mg.

(Values after patent US11142533B2, “Macrocycles for use in treating disease” (TURNING POINT THERAPEUTICS, INC., priority 2019, dated 2021).)
